The results in this text go back to EP1007514B1, “HETEROCYCLIC KETONES AS NPY Y5 ANTAGONISTS” (BAYER CORPORATION, priority 1997, dated 1999).

The structures appear in SMILES notation.

In assay [1] the target is human Y4/PP1 (Homo sapiens, UniProt P50391). Description: NPY Y4/PP1 receptor membrane binding, [125I] human PP. The settings on record: membrane protein; 50 pM [125I] human PP; test compounds at 5 µM final concentration; read-out: IC50 (µM) NPY receptor indicated hY4/pp1. As to the method:
Assays to determine binding affinity for human NPY Y2 and Y4/PP1 receptor subtypes are performed on GF/C Millipore 96-well plates pretreated with 0.02% polyethylenimine. The binding buffer for rat NPY Y2 receptor subtype binding is Krebs-Ringer bicarbonate (pH 7.4) containing 0.01% BSA and 0.005% bacitracin. Samples consist of membrane protein, 25 pM [^125I]PYY and test compounds at 5 µM final concentration. Nonspecific binding is defined by 1 µM NPY. The binding buffer for human Y4/PP1 binding consists of 137 mM NaCl, 5.4 mM KCl, 0.44 mM KH2PO4, 1.26 mM CaCl2, 0.81 mM MgSO4, 20 mM HEPES, 1 mM dithiothreitol, 0.1% bacitracin, 100 mg/l streptomycin sulfate, 1 mg/l aprotinin, 10 mg/ml soybean trypsin inhibitor and 0.3% BSA, pH 7.4. Samples consist of membrane protein, 50 pM human [^125I] human PP (hPP:NEN DuPont, Boston MA) and test compounds diluted to a final concentration of 5 µM. One µM hPP is used to define nonspecific binding. After a 2 hour incubation at room temperature with constant mixing, the samples are aspirated on a vacuum manifold, and rinsed with ice-cold binding buffer. The amount of radioactivity in each well is quantitated with either gamma counting or liquid scintillation.

In assay [2] the target is T1, human NPY Y5 receptor subtype (Homo sapiens, UniProt Q15761).
T1 sequence (Q15761 1-445): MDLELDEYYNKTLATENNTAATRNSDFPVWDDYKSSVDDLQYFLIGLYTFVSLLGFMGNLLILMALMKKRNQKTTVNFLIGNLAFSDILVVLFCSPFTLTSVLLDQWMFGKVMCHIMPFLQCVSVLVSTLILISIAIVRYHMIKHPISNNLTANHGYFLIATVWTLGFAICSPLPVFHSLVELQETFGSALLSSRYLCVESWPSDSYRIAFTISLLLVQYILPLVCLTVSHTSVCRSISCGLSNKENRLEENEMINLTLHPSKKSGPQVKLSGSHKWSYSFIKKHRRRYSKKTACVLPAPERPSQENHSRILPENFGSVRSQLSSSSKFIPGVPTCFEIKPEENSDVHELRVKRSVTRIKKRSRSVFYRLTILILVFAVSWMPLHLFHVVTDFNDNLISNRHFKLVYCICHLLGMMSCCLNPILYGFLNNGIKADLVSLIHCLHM
The assay is described as follows: NPY Y5 receptor membrane binding, [125I]PYY (human). The settings on record: membrane protein; 75-100 pM [125I]PYY; 50% inhibition of specific binding; read-out: IC50 (µM) NPY receptor indicated hY5. As to the method:
Assays to determine human and rat NPY Y5 receptor subtype binding affinity are performed on GF/C Millipore 96-well plates pretreated with 0.02% polyethylenimine. The binding buffer is 25 mM Tris, 120 mM NaCl, 5 mM KCl, 1.2 mM KH2PO4, 2.5 mM CaCl2, 1.2 mM MgSO4, 0.1% BSA and 0.5 mg/ml bacitracin, pH 7.4. Samples consist of membrane protein, 75-100 pM [^125I] PYY (porcine, NEN-DuPont) and test compounds diluted in binding buffer. Nonspecific binding is defined by 1 µM PYY. After a 2 hour incubation at room temperature with constant mixing, the samples are aspirated on a vacuum manifold and rinsed with ice-cold binding buffer. The amount of radioactivity in each well is quantitated with either gamma counting or liquid scintillation. IC50 values, which correspond to 50% inhibition of specific binding, are determined with non-linear regression analysis.

The target in assay [3] is T2, human NPY Y1 receptor subtype (Homo sapiens, UniProt P25929).
T2 construct: host or cells: SK-N-MC cells
T2 sequence (P25929 1-384): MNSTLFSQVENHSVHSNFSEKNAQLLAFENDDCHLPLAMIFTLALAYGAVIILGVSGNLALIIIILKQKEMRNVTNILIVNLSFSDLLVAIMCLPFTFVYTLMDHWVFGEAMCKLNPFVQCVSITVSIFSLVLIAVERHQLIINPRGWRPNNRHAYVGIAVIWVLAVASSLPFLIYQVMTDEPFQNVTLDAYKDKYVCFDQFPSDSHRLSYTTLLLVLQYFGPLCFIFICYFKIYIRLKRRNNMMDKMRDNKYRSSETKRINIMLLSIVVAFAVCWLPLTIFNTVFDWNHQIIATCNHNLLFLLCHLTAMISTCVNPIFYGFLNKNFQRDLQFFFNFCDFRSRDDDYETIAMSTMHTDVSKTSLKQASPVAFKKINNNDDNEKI
Description: NPY Y1 receptor binding, [125I]PYY on SK-N-MC cells. The settings on record: test compounds at 5 µM final concentration, [125I]PYY about 50 pM, read-out: IC50 (µM) NPY receptor indicated hY1. The procedure: For instance, test compounds antagonistic to human NPY Y1 receptor subtype can be identified by a modified method of Gordon et al., J. Neurochem. 55:506-513,(1990), wherein SK-N-MC cells (ATCC, Rockville, ND) are plated in 24-well plates. Once confluent, the cells are rinsed with Dulbecco's phosphate buffered saline (DPBS). Cells are then preincubated in binding buffer containing serum-free DMEM, 25 mM HEPES (pH 7.3), 0.5% bovine serum albumin (BSA), 0.1% bacitracin and 0.1mM phenylmethylsulfonyl fluoride for 30 minutes at room temperature. Test compounds at a final concentration of 5 µM, and [^125I] PYY (about 50 pM:NEN-DuPont) are added to the wells, and the cells are incubated for an additional 3 hours at room temperature, followed by rinsing with ice-cold DPBS. Nonspecific binding is defined with 1 µM NPY. After lysing the cells with 1% Triton X-100, the amount of radioactivity in the lysates is quantitated with a gamma counter.

Chain of human Y4/PP1 (P50391 whole entry): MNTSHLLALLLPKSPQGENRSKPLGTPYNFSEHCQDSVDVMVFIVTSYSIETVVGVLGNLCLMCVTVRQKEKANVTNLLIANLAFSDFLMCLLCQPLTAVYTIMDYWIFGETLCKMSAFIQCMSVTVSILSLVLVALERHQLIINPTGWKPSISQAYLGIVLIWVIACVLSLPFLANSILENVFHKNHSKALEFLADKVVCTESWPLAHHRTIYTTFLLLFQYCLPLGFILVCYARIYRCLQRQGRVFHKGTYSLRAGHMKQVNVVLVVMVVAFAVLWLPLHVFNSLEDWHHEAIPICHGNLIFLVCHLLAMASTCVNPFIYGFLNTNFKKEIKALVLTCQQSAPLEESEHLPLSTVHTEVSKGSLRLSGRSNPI

Turning to `Cc1ccc(SCC(C(=O)c2ncc[nH]2)c2ccccc2)cc1` (stereo not drawn) [Compound 2, (1H-Imidazol-2-yl)-2-phenyl-3-p-tolylsulfanyl-propan-1-one], the IC50 is > 5 µM in assay [1], 0.83 µM in assay [2] and > 5 µM in assay [3].

With `Cc1ccc(S(=O)(=O)CC(C(=O)c2nc3ccccc3s2)c2ccccc2)cc1` (stereo not drawn) [Compound 6, 1-Benzothizol-2-yl-2-phenyl-3-(toluene-4-sulfonyl)-propan-1-one], the IC50 was > 5 µM in assay [1], 8.8 µM in assay [2] and > 5 µM in assay [3].

`Cc1ccc(S(=O)(=O)CC(C(=O)c2nc3cc(C)c(C)cc3[nH]2)c2ccccc2)cc1` (stereo not drawn) [Compound 7, (5,6-Dimethyl-1H-benzoimidazol-2-yl)-2-phenyl-3-(toluene-4-sulfonyl)-propan-1-one]: the IC50 in assay [1] was > 5 µM; in assay [2], 0.06 µM; in assay [3] it was > 5 µM.

As to `O=C(c1nc2ccccc2[nH]1)C(CS(=O)(=O)c1ccccc1)c1ccccc1` (stereo not drawn) [Compound 8, 3-Benzenesulfonyl-1-(1H-benzoimidazol-2-yl)-2-phenyl-propan-1-one], the results for the IC50 in assay [1], in assay [2] and in assay [3] were > 5 µM, 0.022 µM and > 5 µM, respectively.

As to `COc1ccc(S(=O)(=O)CC(C(=O)c2nc3ccccc3[nH]2)c2ccccc2)cc1` (stereo not drawn) [Compound 10, 1-(1H-Benzoimidazol-2-yl)-3-(4-methoxy-benzenesulfonyl)-2-phenyl-propan-1-one], the IC50 in assay [1] was > 5 µM; in assay [2], 0.011 µM; in assay [3] it was > 5 µM.

In the case of `COc1ccc2[nH]c(C(=O)C(CS(=O)(=O)c3ccc(C)cc3)c3ccccc3)nc2c1` (stereo not drawn) [Compound 14, 1-(5-Methoxy-1H-benzoimidazol-2-yl)-2-phenyl-3-(toluene-4-sulfonyl)-propan-1-one], the values for the IC50 in assay [1], in assay [2] and in assay [3] were > 5 µM, 0.08 µM and > 5 µM, respectively.
